Measurements: DBAASP
Converted amounts (≈) assume the structure as drawn.

Assays:
Test in all cases: ≥ marks a high value that may be exact or a test limit, other limits are often not marked, values filed in µg/mL are converted to µM
Candida albicans = test system: Candida albicans
[1] = test system: Enterococcus faecalis ATCC 29212
Escherichia coli DC2 = test system: Escherichia coli DC2
Escherichia coli KF130 = test system: Escherichia coli KF130
Escherichia coli UB1005 = test system: Escherichia coli UB1005
[2] = test system: Pseudomonas aeruginosa H374
[3] = test system: Pseudomonas aeruginosa H744
[4] = test system: Pseudomonas aeruginosa PAO1
[5] = test system: Salmonella enterica subsp. enterica serovar Typhimurium ATCC 14028s
[6] = test system: Staphylococcus aureus ATCC 25923
[7] = test system: Staphylococcus aureus R147
[8] = test system: Staphylococcus aureus SAP 0017
[9] = test system: Staphylococcus epidermidis
[10] = test system: Bacillus megaterium KCTC 1096
[11] = test system: Bacillus subtilis KCTC 1918
[12] = test system: Escherichia coli KCTC 1682
Proteus vulgaris = test system: Proteus vulgaris
[13] = test system: Pseudomonas aeruginosa KCTC 1637
[14] = test system: Staphylococcus aureus KCTC 1621
[15] = test system: Acinetobacter baumannii ATCC 19606
Acinetobacter baumannii = test system: Acinetobacter baumannii
[16] = test system: Bacillus subtilis DSM 4181
Burkholderia cepacia = test system: Burkholderia cepacia
[17] = test system: Escherichia coli ATCC 25922
Escherichia coli BW25113 = test system: Escherichia coli BW25113
Escherichia coli HB101 = test system: Escherichia coli HB101
Escherichia coli J2210 = test system: Escherichia coli J2210
Escherichia coli JJ2489 = test system: Escherichia coli JJ2489
Escherichia coli JW0013 = test system: Escherichia coli JW0013
[18] = test system: Escherichia coli JW0368 ΔsbmA
[19] = test system: Escherichia coli JW2778 ΔygdD
Escherichia coli MC1041 = test system: Escherichia coli MC1041
Escherichia coli ML-35 = test system: Escherichia coli ML-35
Escherichia coli = test system: Escherichia coli
[20] = test system: Klebsiella pneumoniae ATCC 700603
Klebsiella pneumoniae = test system: Klebsiella pneumoniae
[21] = test system: Pseudomonas aeruginosa ATCC 27853
Pseudomonas aeruginosa = test system: Pseudomonas aeruginosa
[22] = test system: Salmonella enterica serovar Typhimurium
[23] = test system: Salmonella enterica subsp. enterica serovar Enteritidis MH91989
[24] = test system: Salmonella enterica subsp. enterica serovar Typhimurium ATCC 14028
[25] = test system: Salmonella typhimurium SL1344
[26] = test system: Serratia marcescens ATCC 8100
[27] = test system: Staphylococcus epidermidis ATCC 12228
[28] = test system: Stenotrophomonas maltophilia ATCC 13637
Aspergillus niger = test system: Aspergillus niger
[29] = test system: Candida albicans IOC 4558
Candida albicans MDM8 = test system: Candida albicans MDM8
[30] = test system: Candida glabrata IOC 4565
Candida krusei IOC 4559 = test system: Candida krusei IOC 4559
[31] = test system: Candida parapsilosis IOC 456416
[32] = test system: Candida tropicalis IOC 45608

Question: What does the source list for CC(C)[C@@H]1NC(=O)[C@H](CCCN=C(N)N)NC(=O)[C@H](Cc2ccccc2)NC(=O)[C@@H](NC(=O)[C@H](Cc2c[nH]c3ccccc23)NC(=O)[C@H](CCCN=C(N)N)NC(=O)[C@@H](N)CCCN=C(N)N)CSSC[C@@H](C(=O)N[C@@H](CCCN=C(N)N)C(N)=O)NC(=O)[C@H](CCCCN)NC(=O)[C@H](CCCN=C(N)N)NC(=O)[C@H](Cc2ccc(O)cc2)NC(=O)[C@@H]2CSSC[C@H](NC1=O)C(=O)N[C@@H](Cc1ccc(O)cc1)C(=O)N[C@@H](CCCN=C(N)N)C(=O)NCC(=O)N[C@@H](CCCN=C(N)N)C(=O)N[C@@H](Cc1ccccc1)C(=O)N2 [RRWCFRVCYRGRFCYRKCR]?
Answer: MIC (Candida albicans): 0.765 µM (≈ 2 µg/mL); MIC [1]: 0.191 µM (≈ 0.499 µg/mL); MIC (Escherichia coli DC2): 0.0956 µM (≈ 0.25 µg/mL); MIC (Escherichia coli KF130): 0.0956 µM (≈ 0.25 µg/mL); MIC (Escherichia coli UB1005): 0.0956 µM (≈ 0.25 µg/mL); MIC [2]: 0.191 µM (≈ 0.499 µg/mL); MIC [3]: 0.382 µM (≈ 0.998 µg/mL); MIC [4]: 0.382 µM (≈ 0.998 µg/mL); MIC [5]: 0.191 µM (≈ 0.499 µg/mL); MIC [6]: 0.382 µM (≈ 0.998 µg/mL); MIC [7]: 0.382 µM (≈ 0.998 µg/mL); MIC [8]: 0.382 µM (≈ 0.998 µg/mL); MIC [9]: 0.0956 µM (≈ 0.25 µg/mL)

Question: CC[C@H](C)[C@H](NC(=O)[C@H](CCCCN)NC(=O)[C@H](CCCCN)NC(=O)[C@H](Cc1ccccc1)NC(=O)[C@H](CC(C)C)NC(=O)[C@H](CCCCN)NC(=O)[C@H](Cc1c[nH]c2ccccc12)NC(=O)[C@@H](N)CCCCN)C(=O)N1CCC[C@H]1C(=O)N[C@@H](Cc1cnc[nH]1)C(=O)N[C@@H](CC(C)C)C(=O)N[C@@H](C)C(=O)N[C@@H](CCCCN)C(=O)N[C@@H](CCCCN)C(=O)N[C@@H](Cc1ccccc1)C(N)=O [KWKLFKKIPHLAKKF] was tested. Which MIC [10] did it give?
Answer: 3.12 µM (≈ 5.97 µg/mL)

Question: What about the MIC [11] of the same compound?
Answer: 0.78 µM (≈ 1.49 µg/mL)

Question: What about the MIC [12] of the same compound?
Answer: 12.5 µM (≈ 23.9 µg/mL)

Question: What about the MIC (Proteus vulgaris) of the same compound?
Answer: 1.56 µM (≈ 2.98 µg/mL)

Question: What about the MIC [13] of the same compound?
Answer: 12.5 µM (≈ 23.9 µg/mL)

Question: And the MIC [14]?
Answer: 6.25 µM (≈ 11.9 µg/mL)

Question: Which results are given for CC[C@H](C)[C@H](NC(=O)[C@H](CCCN=C(N)N)NC(=O)[C@@H](N)CCCN=C(N)N)C(=O)N[C@@H](CCCN=C(N)N)C(=O)N1CCC[C@H]1C(=O)N[C@@H](CCCN=C(N)N)C(=O)N1CCC[C@H]1C(=O)N1CCC[C@H]1C(=O)N[C@@H](CCCN=C(N)N)C(=O)N[C@@H](CC(C)C)C(=O)N1CCC[C@H]1C(=O)N[C@@H](CCCN=C(N)N)C(=O)N1CCC[C@H]1C(=O)N[C@@H](CCCN=C(N)N)C(=O)N1CCC[C@H]1C(=O)N[C@@H](CCCN=C(N)N)C(=O)O [RRIRPRPPRLPRPRPR]?
Answer: MIC [15]: 32 µM (≈ 66.4 µg/mL); MIC (Acinetobacter baumannii): 5.66 µM (≈ 11.7 µg/mL); MIC [16]: 1 µM (≈ 2.08 µg/mL); MIC (Burkholderia cepacia): ≥ 128 µM; MIC [1]: > 64 µM; MIC [17]: 1 µM (≈ 2.08 µg/mL); MIC (Escherichia coli BW25113): 0.06 µM (≈ 0.125 µg/mL); MIC (Escherichia coli HB101): 0.5 µM (≈ 1.04 µg/mL); MIC (Escherichia coli J2210): 0.12 µM (≈ 0.249 µg/mL); MIC (Escherichia coli JJ2489): 0.12 µM (≈ 0.249 µg/mL); MIC (Escherichia coli JW0013): 0.06 µM (≈ 0.125 µg/mL); MIC [18]: 0.06 µM (≈ 0.125 µg/mL); MIC [19]: 0.083 µM (≈ 0.172 µg/mL); MIC (Escherichia coli MC1041): 0.06 µM (≈ 0.125 µg/mL); MIC (Escherichia coli ML-35): 2 µM (≈ 4.15 µg/mL); MIC (Escherichia coli): 8 µM (≈ 16.6 µg/mL); MIC [20]: 4 µM (≈ 8.31 µg/mL); MIC (Klebsiella pneumoniae): 4 µM (≈ 8.31 µg/mL); MIC [21]: > 64 µM; MIC (Pseudomonas aeruginosa): 90.5 µM (≈ 188 µg/mL); MIC [22]: 1 µM (≈ 2.08 µg/mL); MIC [23]: 0.12 µM (≈ 0.249 µg/mL); MIC [24]: 1 µM (≈ 2.08 µg/mL); MIC [25]: 0.06 µM (≈ 0.125 µg/mL); MIC [26]: 8 µM (≈ 16.6 µg/mL); MIC [6]: > 128 µM; MIC [27]: > 64 µM; MIC [28]: ≥ 64 µM

Question: For CC[C@H](C)[C@@H]1NC(=O)[C@H](C)NC(=O)[C@@H](NC(=O)[C@@H](NC(=O)[C@@H](N)Cc2ccccc2)[C@@H](C)O)CSSC[C@@H]2NC(=O)[C@H](CCCCN)NC(=O)[C@H](CCCCN)NC(=O)[C@H](CCC(=O)O)NC(=O)CNC(=O)[C@H](CO)NC(=O)CNC(=O)[C@H](CCCCN)NC(=O)[C@@H]3CSSC[C@@H](C(=O)N[C@H](C(=O)N[C@@H](CCCCN)C(=O)N[C@H](C(=O)O)C(C)C)C(C)C)NC(=O)[C@H](C(C)C)NC(=O)[C@H](CC(N)=O)NC(=O)[C@H](Cc4ccccc4)NC(=O)[C@H](CCCCN)NC(=O)[C@H](CSSC[C@H](NC(=O)[C@H](CO)NC1=O)C(=O)N[C@@H](CC(=O)O)C(=O)N[C@@H]([C@@H](C)CC)C(=O)N[C@@H](CCCCN)C(=O)N[C@@H](C(C)C)C(=O)N[C@@H](CC(N)=O)C(=O)NCC(=O)N[C@@H](CCCCN)C(=O)N1CCC[C@H]1C(=O)N3)NC(=O)[C@H](CO)NC(=O)[C@H](Cc1c[nH]c3ccccc13)NC(=O)CNC(=O)CNC(=O)[C@H](CO)NC2=O [FTCAISCDIKVNGKPCKGSGEKKCSGGWSCKFNVCVKV], which MIC (Aspergillus niger) is on record?
Answer: 7.07 µM (≈ 28.3 µg/mL)

Question: And the MIC [29]?
Answer: 3.54 µM (≈ 14.2 µg/mL)

Question: And the MIC (Candida albicans MDM8)?
Answer: 3.54 µM (≈ 14.2 µg/mL)

Question: What about the MIC [30] of the same compound?
Answer: 3.54 µM (≈ 14.2 µg/mL)

Question: And the MIC (Candida krusei IOC 4559)?
Answer: 3.54 µM (≈ 14.2 µg/mL)

Question: What about the MIC [31] of the same compound?
Answer: 3.54 µM (≈ 14.2 µg/mL)

Question: And the MIC [32]?
Answer: 3.54 µM (≈ 14.2 µg/mL)
